Experimental data taken from patent US4518587A, “Dipeptides of L-5-hydroxytryptophan, processes for their preparation and drugs in which they are present” (S.A. Panmedica, priority 1983, dated 1985).
Read-outs that look alike come from different tables or passages of the source. Square brackets hold non-standard residues; d marks the D form. Peptide text beside a SMILES is read from it. Trp(5-OH) = N[C@@H](Cc1c[nH]c2ccc(O)cc12)C(=O)O

Tested on: brain levels of L-5-hydroxytryptophan (L-5-HTP), serotonin (5-HT) and 5-hydroxyindoleacetic acid (5-HIAA)
Assay: Biochemical analysis of brain levels of L-5-HTP, 5-HT and 5-HIAA one hour after a single dose (technique of CURZON and GREEN)
Assay type: in vivo, rats
Settings: for change in vivo at 10 mg/kg / change in vivo at 25 mg/kg / change in vivo at 50 mg/kg: Rattus norvegicus, 1 h; for change in vivo at 10 mg/kg: read-out: %, relative to the controls, of L-5-HTP at dose of 10 mg/kg
Experimental: Biochemical analysis of the brain levles of L-5-hydroxytryptophan (L-5-HTP), serotonin (5-HT) and its first metabolite, 5-hydroxyindoleacetic acid (5- HIAA), was carried out one hour after the administration of a single dose to adult rats by the technique of CURZON and GREEN. Three doses were studied, i.e. 10, 25 and 50 mg/kg, 10 animals being used per dose. Table I below indicates the percentage increases in 5-HTP, 5-HT and 5-HIAA relative to the levels found in the control animals: […]

[1] = brain level, adult rats, single dose 10 mg/kg, one hour after administration, percentage increase relative to control animals
[2] = brain level, adult rats, single dose 25 mg/kg, one hour after administration, percentage increase relative to control animals, read-out: %, relative to the controls, of 5-HIAA at dose of 25 mg/kg
[3] = brain level, adult rats, single dose 25 mg/kg, one hour after administration, percentage increase relative to control animals, read-out: %, relative to the controls, of L-5-HTP at dose of 25 mg/kg
[4] = brain level, adult rats, single dose 50 mg/kg, one hour after administration, percentage increase relative to control animals, read-out: %, relative to the controls, of 5-HIAA at dose of 50 mg/kg
[5] = brain level, adult rats, single dose 50 mg/kg, one hour after administration, percentage increase relative to control animals, read-out: %, relative to the controls, of 5-HT at dose of 50 mg/kg
[6] = brain level, adult rats, single dose 25 mg/kg, one hour after administration, percentage increase relative to control animals
[7] = brain level, adult rats, single dose 50 mg/kg, one hour after administration, percentage increase relative to control animals

| SMILES | change in vivo at 25 mg/kg [2] [%] | change in vivo at 25 mg/kg [3] [%] | change in vivo at 50 mg/kg [4] [%] | change in vivo at 50 mg/kg [5] [%] | %, relative to the controls, of 5-HIAA at dose of 10 mg/kg [1] [%] | %, relative to the controls, of 5-HT at dose of 10 mg/kg [1] [%] | %, relative to the controls, of 5-HT at dose of 25 mg/kg [6] [%] | other results |
| --- | --- | --- | --- | --- | --- | --- | --- | --- |
| N=C(N)NCCC[C@H](NC(=O)[C@@H](N)Cc1c[nH]c2ccc(O)cc12)C(=O)O [Example 18, 5-Hydroxy-L-tryptophyl-L-arginine] (H-[Trp(5-OH)]-Arg-OH) | 15 | 300 | 15 | 30 | 10 | 12 | 30 | change in vivo at 10 mg/kg [1]: 100%; change in vivo at 50 mg/kg (brain level, adult rats, single dose 50 mg/kg, one hour after administration, percentage increase relative to control animals, read-out: %, relative to the controls, of L-5-HTP at dose of 50 mg/kg): 500% |
| N[C@@H](Cc1c[nH]c2ccc(O)cc12)C(=O)NCC(=O)O [Example 19, 5-HYDROXY-L-TRYPTOPHYLGLYCINE] (H-[Trp(5-OH)]-Gly-OH) | 170 | 700 | 350 | 30 | 75 | 30 | 12 |  |
| NC(=O)[C@@H](N)Cc1c[nH]c2ccc(O)cc12.O [Example 21, 5-HYDROXY-L-TRYPT[…], HYDRATE] |  |  |  |  |  |  |  | change in vivo at 25 mg/kg (read-out: %, relative to the controls, of 5-HIAA at dose of 25 mg/kg): 50%; change in vivo at 50 mg/kg (read-out: %, relative to the controls, of 5-HIAA at dose of 50 mg/kg): 170%; change in vivo at 50 mg/kg (read-out: %, relative to the controls, of 5-HT at dose of 50 mg/kg): 20%; change in vivo at 10 mg/kg: 125%; change in vivo at 25 mg/kg (read-out: %, relative to the controls, of L-5-HTP at dose of 25 mg/kg): 250%; change in vivo at 50 mg/kg (read-out: %, relative to the controls, of L-5-HTP at dose of 50 mg/kg): 700% |
| NC(=O)[C@@H](N)Cc1c[nH]c2ccc(O)cc12.O [Example 21, 5-HYDROXY-L-TRYPT[…]] |  |  |  |  | 30 |  |  |  |
| COC(=O)[C@H](Cc1c[nH]cn1)NC(=O)[C@@H](N)Cc1c[nH]c2ccc(O)cc12 [Example 22, METHYL ESTER OF 5-HYDROXY-L-TRYPTOPHYL-L-HISTIDINE] (H-[Trp(5-OH)]-His-OMe) |  |  |  |  | 40 |  | 15 | %, relative to the controls, of 5-HIAA at dose of 25 mg/kg [6]: 140%; %, relative to the controls, of L-5-HTP at dose of 25 mg/kg [6]: 200%; %, relative to the controls, of 5-HIAA at dose of 50 mg/kg [7]: 300%; %, relative to the controls, of 5-HT at dose of 50 mg/kg [7]: 15%; %, relative to the controls, of L-5-HTP at dose of 50 mg/kg [7]: 300% |
